Here are results for 6 compounds from article PMC12136037, “Type II kinase inhibitors that target Parkinson’s disease–associated LRRK2” (Science Advances, 2025).

Where “and” joins values, the source holds several entries; their conditions need not be identical. Identical values can stand only once.

One test deals with T1, LRRK2^KW (Homo sapiens, UniProt Q5S007).
T1 construct: LRRK2 R1847 to E2527; His6-Z-tag (TEV cleavable) (N, cleaved yes); host or cells: Sf9 insect cells (baculovirus)
T1 sequence (Q5S007 1847-2527): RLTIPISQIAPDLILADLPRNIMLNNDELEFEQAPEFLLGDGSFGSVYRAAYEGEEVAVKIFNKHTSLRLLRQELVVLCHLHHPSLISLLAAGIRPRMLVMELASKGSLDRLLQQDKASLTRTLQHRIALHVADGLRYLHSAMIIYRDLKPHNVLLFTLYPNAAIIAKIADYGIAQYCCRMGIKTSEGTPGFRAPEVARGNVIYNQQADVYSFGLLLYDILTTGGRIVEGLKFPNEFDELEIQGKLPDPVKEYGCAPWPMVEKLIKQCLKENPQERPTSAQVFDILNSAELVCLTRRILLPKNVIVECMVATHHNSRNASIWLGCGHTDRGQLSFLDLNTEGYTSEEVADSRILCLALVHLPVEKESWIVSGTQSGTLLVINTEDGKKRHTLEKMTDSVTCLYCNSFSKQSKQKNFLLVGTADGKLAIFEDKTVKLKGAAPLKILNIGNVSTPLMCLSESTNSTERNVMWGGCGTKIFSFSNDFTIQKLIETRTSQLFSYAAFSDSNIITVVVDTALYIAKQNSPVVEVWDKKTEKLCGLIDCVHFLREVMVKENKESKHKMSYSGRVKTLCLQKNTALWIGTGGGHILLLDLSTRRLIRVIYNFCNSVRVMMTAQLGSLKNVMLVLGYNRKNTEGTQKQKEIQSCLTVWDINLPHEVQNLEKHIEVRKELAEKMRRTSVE
Nature of the test: DSF thermal stabilization of LRRK2^KW. It counts as binding. As to conditions: DSF, LRRK2^KW, 10 μM inhibitor. The essentials:
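DSF on 4 μM LRRK2^KW in 20 mM Hepes pH 7.4, 150 mM NaCl, 0.5 mM TCEP, 0.5% glycerol, 20 μM GDP, 2.5 mM MgCl2 with SYPRO Orange; inhibitor at 10 μM. Tm was taken as the minimum of the first derivative of fluorescence versus temperature, relative to control.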

The next test addresses T2, LRRK2^RCKW (Homo sapiens, UniProt Q5S007).
T2 construct: LRRK2 R1327 to E2527; His6-Z-tag (TEV cleavable) (N, cleaved yes); host or cells: Sf9 insect cells (baculovirus)
T2 sequence (Q5S007 1327-2527): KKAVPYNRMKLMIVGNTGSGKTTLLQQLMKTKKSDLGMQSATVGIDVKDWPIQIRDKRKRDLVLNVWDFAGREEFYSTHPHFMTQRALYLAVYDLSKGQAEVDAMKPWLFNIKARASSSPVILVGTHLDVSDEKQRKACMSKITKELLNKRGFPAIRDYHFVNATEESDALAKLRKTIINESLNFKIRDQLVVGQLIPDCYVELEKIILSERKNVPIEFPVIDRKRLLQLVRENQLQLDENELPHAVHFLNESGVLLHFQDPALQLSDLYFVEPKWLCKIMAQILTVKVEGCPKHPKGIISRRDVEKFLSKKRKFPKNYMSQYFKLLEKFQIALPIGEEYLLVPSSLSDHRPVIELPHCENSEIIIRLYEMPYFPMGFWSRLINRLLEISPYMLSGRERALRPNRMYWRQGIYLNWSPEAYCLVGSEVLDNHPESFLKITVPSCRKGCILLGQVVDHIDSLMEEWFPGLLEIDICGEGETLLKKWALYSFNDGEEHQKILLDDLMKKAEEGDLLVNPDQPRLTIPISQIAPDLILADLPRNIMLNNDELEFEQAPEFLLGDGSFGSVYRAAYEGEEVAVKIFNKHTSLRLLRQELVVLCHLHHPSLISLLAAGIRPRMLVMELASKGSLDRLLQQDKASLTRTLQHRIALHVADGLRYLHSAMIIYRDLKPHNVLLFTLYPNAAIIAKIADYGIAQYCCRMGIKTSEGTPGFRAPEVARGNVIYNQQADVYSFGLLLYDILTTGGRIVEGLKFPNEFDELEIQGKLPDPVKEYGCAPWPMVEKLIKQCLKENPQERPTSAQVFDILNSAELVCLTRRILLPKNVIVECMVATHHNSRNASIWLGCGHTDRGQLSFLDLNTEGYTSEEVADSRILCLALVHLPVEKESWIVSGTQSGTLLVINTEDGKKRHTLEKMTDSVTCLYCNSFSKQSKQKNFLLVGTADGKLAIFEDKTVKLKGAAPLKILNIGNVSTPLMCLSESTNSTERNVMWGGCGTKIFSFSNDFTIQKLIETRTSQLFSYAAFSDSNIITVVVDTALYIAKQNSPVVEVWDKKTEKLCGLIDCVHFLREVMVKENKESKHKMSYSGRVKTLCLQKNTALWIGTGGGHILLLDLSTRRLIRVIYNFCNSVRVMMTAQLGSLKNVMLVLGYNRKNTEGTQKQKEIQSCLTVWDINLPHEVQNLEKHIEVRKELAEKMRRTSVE
The experiment in a line: Biochemical LRRK2 activity assay (PhosphoSense, AssayQuant SOX peptide AQT0615). The note with it: for normalized response (LRRK2 activity): normalized to 0% (no kinase) and 100% (no inhibitor) control, two singlicate columns per compound; for IC50: LRRK2^RCKW kinase activity, in vitro. A digest of the protocol:
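Controls lacked protein and compound (0%) or compound only (100%). IC50 derived by nonlinear regression of normalized response versus log[inhibitor].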

Consider `Cc1ccc(C(=O)Nc2ccc(CN3CCN(C)CC3)c(C(F)(F)F)c2)cc1C#Cc1cnc2cccnn12` [Ponatinib, reference compound], for which the “∆Tm (K)” value at LRRK2^KW was 13.0 K. Besides, the “normalized response (LRRK2 activity)” value is 56.5539% and 57.6737% on LRRK2^RCKW (log[inhibitor(mol)] -6.30103); 39.5492% and 29.1129% on LRRK2^RCKW (log[inhibitor(mol)] -6.90309); 59.9414% and 56.1669% on LRRK2^RCKW (log[inhibitor(mol)] -7.30103); 77.794% and 52.662% at LRRK2^RCKW (log[inhibitor(mol)] -7.60206); 99.8669% and 100.13% at LRRK2^RCKW (log[inhibitor(mol)] -8.09691); 102.911% on LRRK2^RCKW (log[inhibitor(mol)] -8.61979). Moreover, the “normalized response (LRRK2 activity)” value at LRRK2^RCKW (log[inhibitor(mol)] -9.09691) was 103.335% and 101.393%; on LRRK2^RCKW (log[inhibitor(mol)] -9.39794) it was 103.789% and 105.568%.
Take `CCSc1nc(NC)c2c(-c3cccc(NC(=O)Nc4cc(C(C)(C)C)nn4-c4ccc(C)cc4)c3)c[nH]c2n1` [Compound 32]: the figures for the “∆Tm (K)” value at LRRK2^KW (listed as 32 (RN341)) and at LRRK2^KW (listed as RN341) were 19.9 K and 20 K, respectively. In addition, the IC50 on LRRK2^RCKW is 296 ± 39 nM. In addition, the “normalized response (LRRK2 activity)” value is -7.459% and -2.016% on LRRK2^RCKW (log[inhibitor(mol)] -5.12494); 19.5756% and 16.293% on LRRK2^RCKW (log[inhibitor(mol)] -5.60206); 31.5753% and 35.852% on LRRK2^RCKW (log[inhibitor(mol)] -6.30103); 72.0233% and 73.3531% on LRRK2^RCKW (log[inhibitor(mol)] -6.90309); 83.8241% and 86.8594% at LRRK2^RCKW (log[inhibitor(mol)] -7.30103); 89.687% and 98.7972% at LRRK2^RCKW (log[inhibitor(mol)] -7.60206). For the same compound, the “normalized response (LRRK2 activity)” value on LRRK2^RCKW (log[inhibitor(mol)] -8.09691) is 90.4381% and 87.8004%; at LRRK2^RCKW (log[inhibitor(mol)] -8.61979) it was 96.4865% and 91.0964%; at LRRK2^RCKW (log[inhibitor(mol)] -9.09691), 94.4983% and 98.9209%; at LRRK2^RCKW (log[inhibitor(mol)] -9.39794) it was 96.9901% and 60.5361%.
As to `O=C(Nc1cccc(-c2c[nH]c3ncnc(N4CCOCC4)c23)c1)C1(C(=O)Nc2ccc(F)c(Br)c2)CC1` [Compound 19], the “∆Tm (K)” value at LRRK2^KW was 14.0 K. For the same compound, it took 264 ± 19 nM to reach half-maximal inhibition on LRRK2^RCKW (IC50). In addition, the “normalized response (LRRK2 activity)” value at LRRK2^RCKW (log[inhibitor(mol)] -4.82391) was 3.161% and 1.4%; at LRRK2^RCKW (log[inhibitor(mol)] -5.12494) it was 3.805% and 3.935%; on LRRK2^RCKW (log[inhibitor(mol)] -5.60206), 9.506% and 13.5388%; on LRRK2^RCKW (log[inhibitor(mol)] -6.30103), 29.4238% and 33.7614%; at LRRK2^RCKW (log[inhibitor(mol)] -6.90309), 67.8273% and 68.8623%; on LRRK2^RCKW (log[inhibitor(mol)] -7.30103), 84.3755% and 91.2634%. In addition, the “normalized response (LRRK2 activity)” value is 88.4282% and 94.2182% on LRRK2^RCKW (log[inhibitor(mol)] -7.60206); 94.3856% and 94.7313% on LRRK2^RCKW (log[inhibitor(mol)] -8.09691); 99.7343% and 99.0059% at LRRK2^RCKW (log[inhibitor(mol)] -8.61979); 100.123% and 100.393% on LRRK2^RCKW (log[inhibitor(mol)] -9.09691); 97.0165% and 71.9323% on LRRK2^RCKW (log[inhibitor(mol)] -9.39794).
Take `COc1cc(NC(=O)C2(C(=O)Nc3cccc(-c4c[nH]c5ncnc(N6CCOCC6)c45)c3)CC2)ccc1F` [Compound 21]: the “∆Tm (K)” value on LRRK2^KW amounted to 9.3 K. At LRRK2^RCKW, this compound returned an IC50 of 331 ± 59 nM. Moreover, the “normalized response (LRRK2 activity)” value at LRRK2^RCKW (log[inhibitor(mol)] -5.12494) is -8.581% and -13.1049%; on LRRK2^RCKW (log[inhibitor(mol)] -5.60206) it was -3.229% and 0.9871%; at LRRK2^RCKW (log[inhibitor(mol)] -6.30103) it was 31.841% and 40.7652%; at LRRK2^RCKW (log[inhibitor(mol)] -6.90309), 74.4117% and 83.0044%; at LRRK2^RCKW (log[inhibitor(mol)] -7.30103), 89.3998% and 91.1429%; on LRRK2^RCKW (log[inhibitor(mol)] -7.60206) it was 98.2625% and 97.8145%. Moreover, the “normalized response (LRRK2 activity)” value at LRRK2^RCKW (log[inhibitor(mol)] -8.09691) was 90.8667% and 93.1069%; on LRRK2^RCKW (log[inhibitor(mol)] -8.61979), 91.1981% and 94.2547%; on LRRK2^RCKW (log[inhibitor(mol)] -9.09691), 94.6536% and 91.2165%; at LRRK2^RCKW (log[inhibitor(mol)] -9.39794), 100.092% and 102.338%.
Turning to `Cc1cc(NC(=O)C2(C(=O)Nc3cccc(-c4c[nH]c5ncnc(N6CCOCC6)c45)c3)CC2)ccc1F` [Compound 20], the “∆Tm (K)” value at LRRK2^KW turned out to be 13.3 K. Further, it took 110 ± 11 nM to reach half-maximal inhibition on LRRK2^RCKW (IC50). Also, the “normalized response (LRRK2 activity)” value is -5.58% and -14.6884% at LRRK2^RCKW (log[inhibitor(mol)] -4.82391); -12.9576% and -4.07% on LRRK2^RCKW (log[inhibitor(mol)] -5.12494); -8.508% and -7.489% at LRRK2^RCKW (log[inhibitor(mol)] -5.60206); 42.2259% and 43.1588% on LRRK2^RCKW (log[inhibitor(mol)] -6.90309); 74.6695% and 77.6217% at LRRK2^RCKW (log[inhibitor(mol)] -7.30103); 88.2582% and 90.1977% on LRRK2^RCKW (log[inhibitor(mol)] -7.60206). Also, the “normalized response (LRRK2 activity)” value at LRRK2^RCKW (log[inhibitor(mol)] -8.09691) was 89.9215% and 96.544%; at LRRK2^RCKW (log[inhibitor(mol)] -8.61979), 106.119% and 94.9298%; on LRRK2^RCKW (log[inhibitor(mol)] -9.09691), 105.603% and 97.4708%; at LRRK2^RCKW (log[inhibitor(mol)] -9.39794), 68.2188% and 102.467%.
`O=C(Nc1cccc(-c2c[nH]c3ncnc(N4CCOCC4)c23)c1)C1(C(=O)Nc2ccc(F)cc2F)CC1` [Compound 23]: the “∆Tm (K)” value at LRRK2^KW is listed as 9.2 K. Besides, the IC50 on LRRK2^RCKW is 159 ± 0.2 nM. For the same compound, the “normalized response (LRRK2 activity)” value is -26.6261% and -31.2355% on LRRK2^RCKW (log[inhibitor(mol)] -4.82391); -19.0277% and -21.4214% at LRRK2^RCKW (log[inhibitor(mol)] -5.12494); -16.2351% and -13.5898% at LRRK2^RCKW (log[inhibitor(mol)] -5.60206); 3.675% and 3.246% at LRRK2^RCKW (log[inhibitor(mol)] -6.30103); 59.976% and 57.9812% on LRRK2^RCKW (log[inhibitor(mol)] -6.90309); 81.7768% and 85.349% on LRRK2^RCKW (log[inhibitor(mol)] -7.30103). For the same compound, the “normalized response (LRRK2 activity)” value on LRRK2^RCKW (log[inhibitor(mol)] -7.60206) is 93.6348% and 95.0771%; at LRRK2^RCKW (log[inhibitor(mol)] -8.09691), 95.5743% and 95.9609%; on LRRK2^RCKW (log[inhibitor(mol)] -8.61979), 101.288% and 95.0587%; on LRRK2^RCKW (log[inhibitor(mol)] -9.09691), 106.438% and 96.5808%; at LRRK2^RCKW (log[inhibitor(mol)] -9.39794), 103.437% and 104.087%.

The term IC50 denotes the concentration that inhibits the measured activity by half. The low end stands for greater potency in that assay, the high end for weaker potency in that assay.
